Structures can show the parent of a compound that is named as a salt.
Tested on: mice
Test: Acute Oral LD50 mice (Table I)
Type: in vivo
Excerpt: The low toxicity of these compounds makes them especially attractive for use where contact with skin surfaces or possible ingestion renders the use of irritating or toxic materials inadvisable.
______________________________________

Cc1ccc(C(C)(C)C)cc1CCCC(CCCc1cc(C(C)(C)C)ccc1C)NCCCNCCCN [1-[1,7-di-(2-methyl-5-t-butylphenyl)-hydrochloride]
Acute Oral LD50 mice: 1650 mg/kg
